Measured values: ChEMBL document CHEMBL3102853, “Carbonic anhydrase inhibitors. Synthesis, and molecular structure of novel series N-substituted N'-(2-arylmethylthio-4-chloro-5-methylbenzenesulfonyl)guanidines and their inhibition of human cytosolic isozymes I and II and the transmembrane tumor-associated isozymes IX and XII” (Eur J Med Chem, 2014)
pKi: −log10 of the molar value.

Molecular target: Carbonic anhydrase 9 (Homo sapiens, UniProt Q16790)

Compound	pKi
Cc1cc(S(=O)(=O)NC(=N)NNc2ccc(S(N)(=O)=O)cc2)c(SCc2cccc(C(F)(F)F)c2)cc1Cl	7.68
Cc1cc(S(=O)(=O)NC(=N)Nc2nnc(S(N)(=O)=O)s2)c(SCc2ccc(C(F)(F)F)cc2)cc1Cl	7.99
